Type in all cases: physicochemical
Data set [1] is described as follows: Molar extinction coefficient of i-line (365 nm), UV-visible absorbance in acetonitrile. The conditions noted are these: 0.25 mmol/L in acetonitrile, cell length 1 cm. In a few lines:
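Compound at 0.25 mmol/L in acetonitrile; UV-visible absorbance scanned 200–500 nm in a 1 cm path cell. ε365 calculated from the absorbance at 365 nm.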

Data set [2] can be described thus: Thermal decomposition temperature (TG/DTA, 2% weight reduction). The following applies: point of 2% weight reduction; 10° C./minute from 30° C. to 500° C.; nitrogen atmosphere. As to the method: The synthesized photoacid generator was measured for the change in weight under a temperature increasing condition of 10° C./minute from 30° C. to 500° C. under a nitrogen atmosphere using a thermal gravimetric/differential thermal analyzer (TG/DTA 6200, available from Seiko Instruments Inc.), and a point where the weight was reduced by 2% was defined as the thermal decomposition temperature.

The nature of data set [3]: Solvent solubility (butyl acetate, toluene or PGMEA). The following applies: 25° C. In a few lines: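 Test-tube titration at 25° C: 0.1 g photoacid generator, solvent (butyl acetate, toluene or PGMEA) added in 0.2 g portions until fully dissolved. Scored as not dissolved if still undissolved after 20 g solvent.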

Structures are written as SMILES.

In data set [1], `CC1(C)C2CC[C@@]1(CS(=O)(=O)ON1C(=O)c3cccc4cc(OC(=O)c5ccccc5)cc(c34)C1=O)C(=O)C2` [Example A-51, 3-benzoyloxy-1,8-naphthalimide-(+)-10-camphorsulfonate] came in with a Molar extinction coefficient of 1400 L/mol/cm. The compound further had a Thermal decomposition temperature in data set [2] of 245 °C. Moreover, in data set [3], the “Solvent solubility PGMEA” value was 5 wt %, the “Solvent solubility Butyl acetate” value came to 6 wt % and the “Solvent solubility Toluene” value turned out to be 6 wt %.
As for `CC1(C)C2CC[C@@]1(CS(=O)(=O)ON1C(=O)c3cccc4cc(OC(=O)c5c(F)c(F)c(F)c(F)c5F)cc(c34)C1=O)C(=O)C2` [Example A-52, 3-pentafluorobenzoyloxy-1,8-naphthalimide-(+)-10-camphorsulfonate], the Molar extinction coefficient in data set [1] came to 1300 L/mol/cm. For the same compound, the Thermal decomposition temperature in data set [2] stood at 245 °C. In addition, in data set [3], the “Solvent solubility PGMEA” value stood at 7.5 wt %, the “Solvent solubility Butyl acetate” value is given as 12 wt % and the “Solvent solubility Toluene” value is 10 wt %.
Taken in the same sequence, the figures for `CC(C)(C)c1cc2c3c(cc(C(C)(C)C)cc3c1)C(=O)N(OS(=O)(=O)CC13CCC(CC1=O)C3(C)C)C2=O` (stereo not drawn) [Example A-53, 3,6-di-tert-butyl-1,8-naphthalimide-(+)-10-camphorsulfonate] were 6500 L/mol/cm, 247 °C, 1.7 wt %, 2 wt % and 1.9 wt %.
For `CC(C)(C)Cc1cc2c3c(cc(CC(C)(C)C)cc3c1)C(=O)N(OS(=O)(=O)CC13CCC(CC1=O)C3(C)C)C2=O` (stereo not drawn) [Example A-54, 3,6-dineopentyl-1,8-naphthalimide-(+)-10-camphorsulfonate], in that order: 6200 L/mol/cm, 252 °C, 3.5 wt %, 4.5 wt % and 2.5 wt %.
For the compound `CC1(C)C2CC[C@@]1(CS(=O)(=O)ON1C(=O)c3cc(C45CC6CC(CC(C6)C4)C5)cc4cc(C56CC7CC(CC(C7)C5)C6)cc(c34)C1=O)C(=O)C2` [Example A-55, 3,6-diadamantyl-1,8-naphthalimide-(+)-10-camphorsulfonate], in data set [1], the Molar extinction coefficient was 6000 L/mol/cm. In data set [2], this compound yielded a Thermal decomposition temperature of 253 °C. In addition, in data set [3], the “Solvent solubility PGMEA” value is given as 1.7 wt %, the “Solvent solubility Butyl acetate” value was 2 wt % and the “Solvent solubility Toluene” value is on record as 2.1 wt %.
In turn, `CC1(C)C2CCC1(CS(=O)(=O)ON1C(=O)c3cccc4c(C(F)(F)C(F)(F)C(F)(F)C(F)(F)F)ccc(c34)C1=O)C(=O)C2` (stereo not drawn) [Example A-56, 4-(nonafluorobutyl)-1,8-naphthalimide-(+)-10-camphorsulfonate] registered a Molar extinction coefficient in data set [1] of 40 L/mol/cm. Moreover, the Thermal decomposition temperature in data set [2] came out at 241 °C. In data set [3], the “Solvent solubility PGMEA” value came to 5 wt %, the “Solvent solubility Butyl acetate” value stood at 5 wt % and the “Solvent solubility Toluene” value is recorded as 5.5 wt %.
For the compound `CC1(C)C2CCC1(CS(=O)(=O)ON1C(=O)c3cccc4c(C(F)(F)C(F)(F)C(F)(F)C(F)(F)C(F)(F)C(F)(F)C(F)(F)C(F)(F)F)ccc(c34)C1=O)C(=O)C2` (stereo not drawn) [Example A-57, 4-(heptadecafluoro-n-octyl)-1,8-naphthalimide-(+)-10-camphorsulfonate], the Molar extinction coefficient in data set [1] came out at 80 L/mol/cm. The Thermal decomposition temperature in data set [2] was found to be 246 °C. Moreover, in data set [3], the “Solvent solubility PGMEA” value was found to be 9 wt %, the “Solvent solubility Butyl acetate” value is reported as 9.5 wt % and the “Solvent solubility Toluene” value was found to be 10 wt %.
For `CC1(C)[C@@H]2CC[C@@]1(CS(=O)(=O)ON1C(=O)c3cccc4c([Si](C)(C)C)ccc(c34)C1=O)C(=O)C2` [Example A-58, 4-trimethylsilyl-1,8-naphthalimide-(+)-10-camphorsulfonate], in that order: 5500 L/mol/cm, 243 °C, 2.5 wt %, 2.5 wt % and 3 wt %.
Turning to `CC1(C)C2CCC1(CS(=O)(=O)ON1C(=O)c3cccc4c(Cl)ccc(c34)C1=O)C(=O)C2` (stereo not drawn) [Example A-59, 4-chloro-1,8-naphthalimide-(+)-10-camphorsulfonate], the Molar extinction coefficient in data set [1] was 6000 L/mol/cm. The Thermal decomposition temperature in data set [2] was found to be 228 °C. In data set [3], the “Solvent solubility PGMEA” value was 1.5 wt %, the “Solvent solubility Butyl acetate” value was found to be 1.5 wt % and the “Solvent solubility Toluene” value stood at 2.5 wt %.
Take `CC1(C)C2CCC1(CS(=O)(=O)ON1C(=O)c3cccc4c(Br)ccc(c34)C1=O)C(=O)C2` (stereo not drawn) [Example A-60, 4-bromo-1,8-naphthalimide-(+)-10-camphorsulfonate]: the Molar extinction coefficient in data set [1] was 8500 L/mol/cm. The Thermal decomposition temperature in data set [2] stood at 240 °C. For the same compound, in data set [3], the “Solvent solubility PGMEA” value turned out to be 1.5 wt %, the “Solvent solubility Butyl acetate” value came out at 1.1 wt % and the “Solvent solubility Toluene” value worked out at 2 wt %.

Values taken from patent publication US20160368879A1, “PHOTOACID GENERATOR, AND RESIN COMPOSITION FOR PHOTOLITHOGRAPHY” (SAN-APRO LTD., priority 2013, published 2016).
